These results are taken from ChEMBL document CHEMBL1949576, “Praziquantel derivatives exhibit activity against both juvenile and adult Schistosoma japonicum” (2012).

What all share (format): functional
Test [1] concerns Schistosoma japonicum. Put plainly: Antischistosomal activity against adult Schistosoma japonicum assessed as worm survival at 80 uM after 72 hrs relative to control.
The test system of test [2] is Schistosoma japonicum. The test is described as follows: Antischistosomal activity against adult Schistosoma japonicum assessed as worm survival at 80 uM after 48 hrs relative to control.
The subject of test [3] is Schistosoma japonicum. Put plainly: Antischistosomal activity against adult Schistosoma japonicum assessed as worm survival at 70 uM after 24 hrs relative to control.
In test [4] the test system is Schistosoma japonicum. The test is described as follows: Antischistosomal activity against adult Schistosoma japonicum assessed as worm survival at 50 uM after 72 hrs relative to control.
Test [5] concerns Schistosoma japonicum. The test is described as follows: Antischistosomal activity against adult Schistosoma japonicum assessed as worm survival at 50 uM after 48 hrs relative to control.
For test [6], the system named is Schistosoma japonicum. The test is described as follows: Antischistosomal activity against adult Schistosoma japonicum assessed as worm survival at 70 uM after 48 hrs relative to control.
Test [7] concerns Schistosoma japonicum. The test is described as follows: Antischistosomal activity against adult Schistosoma japonicum assessed as worm survival at 70 uM after 72 hrs relative to control.
The subject of test [8] is Schistosoma japonicum. Put plainly: Antischistosomal activity against adult Schistosoma japonicum assessed as worm survival at 80 uM after 24 hrs relative to control.
Test [9] concerns Schistosoma japonicum. Put plainly: Antischistosomal activity against adult Schistosoma japonicum assessed as worm survival at 60 uM after 48 hrs relative to control.
For test [10], the system named is Schistosoma japonicum. The test is described as follows: Antischistosomal activity against adult Schistosoma japonicum assessed as worm survival at 60 uM after 72 hrs relative to control.
Test [11] concerns Schistosoma japonicum. Put plainly: Antischistosomal activity against adult Schistosoma japonicum assessed as worm survival at 50 uM after 24 hrs relative to control.
Test [12] relates to Schistosoma japonicum. Put plainly: Antischistosomal activity against adult Schistosoma japonicum assessed as worm survival at 60 uM after 24 hrs relative to control.
Test [13] deals with Schistosoma japonicum. The test is described as follows: Antischistosomal activity against juvenile Schistosoma japonicum assessed as worm survival at 20 uM after 48 hrs relative to control.
Test [14] concerns Schistosoma japonicum. Put plainly: Antischistosomal activity against juvenile Schistosoma japonicum infected in mouse assessed as total worm reduction at 200 mg/kg, po administered 14 days after infection relative to control. Also on record: scale not given: the % may be the effect or the level left.
In test [15] the test system is Schistosoma japonicum. The test is described as follows: Antischistosomal activity against adult Schistosoma japonicum assessed as worm survival at 10 uM after 48 hrs relative to control.
The subject of test [16] is Schistosoma japonicum. Put plainly: Antischistosomal activity against juvenile Schistosoma japonicum assessed as worm survival at 5 uM after 72 hrs relative to control.
The test system of test [17] is Schistosoma japonicum. Put plainly: Antischistosomal activity against adult Schistosoma japonicum assessed as worm survival at 20 uM after 48 hrs relative to control.
Test [18] deals with Schistosoma japonicum. Put plainly: Antischistosomal activity against adult Schistosoma japonicum assessed as worm survival at 20 uM after 24 hrs relative to control.
Test [19] relates to Schistosoma japonicum. Put plainly: Antischistosomal activity against adult Schistosoma japonicum assessed as worm survival at 25 uM after 72 hrs relative to control.
In test [20] the test system is Schistosoma japonicum. The test is described as follows: Antischistosomal activity against juvenile Schistosoma japonicum assessed as worm survival at 50 uM after 24 hrs relative to control.
For test [21], the system named is Schistosoma japonicum. Put plainly: Antischistosomal activity against adult Schistosoma japonicum assessed as worm survival at 10 uM after 72 hrs relative to control.
Test [22] concerns Schistosoma japonicum. The test is described as follows: Antischistosomal activity against juvenile Schistosoma japonicum assessed as worm survival at 50 uM after 48 hrs relative to control.
Test [23] concerns Schistosoma japonicum. The test is described as follows: Antischistosomal activity against juvenile Schistosoma japonicum assessed as worm survival at 5 uM after 48 hrs relative to control.
Test [24] concerns Schistosoma japonicum. Put plainly: Antischistosomal activity against adult Schistosoma japonicum assessed as worm survival at 15 uM after 24 hrs relative to control.
Test [25] deals with Schistosoma japonicum. The test is described as follows: Antischistosomal activity against juvenile Schistosoma japonicum assessed as worm survival at 5 uM after 24 hrs relative to control.
In test [26] the test system is Schistosoma japonicum. Put plainly: Antischistosomal activity against juvenile Schistosoma japonicum assessed as worm survival at 25 uM after 72 hrs relative to control.
Test [27] has as its system Schistosoma japonicum. The test is described as follows: Antischistosomal activity against juvenile Schistosoma japonicum assessed as worm survival at 10 uM after 24 hrs relative to control.
Test [28] deals with Schistosoma japonicum. The test is described as follows: Antischistosomal activity against adult Schistosoma japonicum assessed as worm survival at 15 uM after 72 hrs relative to control.
For test [29], the system named is Schistosoma japonicum. The test is described as follows: Antischistosomal activity against adult Schistosoma japonicum assessed as worm survival at 25 uM after 24 hrs relative to control.
Test [30] deals with Schistosoma japonicum. The test is described as follows: Antischistosomal activity against adult Schistosoma japonicum assessed as worm survival at 25 uM after 48 hrs relative to control.
In test [31] the test system is Schistosoma japonicum. Put plainly: Antischistosomal activity against juvenile Schistosoma japonicum assessed as worm survival at 25 uM after 48 hrs relative to control.
The subject of test [32] is Schistosoma japonicum. The test is described as follows: Antischistosomal activity against juvenile Schistosoma japonicum assessed as worm survival at 10 uM after 72 hrs relative to control.
Test [33] relates to Schistosoma japonicum. Put plainly: Antischistosomal activity against adult Schistosoma japonicum infected in mouse assessed as total worm reduction at 200 mg/kg, po administered 21 days after infection relative to control. Also on record: scale not given: the % may be the effect or the level left.
In test [34] the test system is Schistosoma japonicum. Put plainly: Antischistosomal activity against juvenile Schistosoma japonicum assessed as worm survival at 20 uM after 72 hrs relative to control.
Test [35] relates to Schistosoma japonicum. Put plainly: Antischistosomal activity against adult Schistosoma japonicum assessed as worm survival at 20 uM after 72 hrs relative to control.
Test [36] deals with Schistosoma japonicum. The test is described as follows: Antischistosomal activity against juvenile Schistosoma japonicum assessed as worm survival at 25 uM after 24 hrs relative to control.
Test [37] deals with Schistosoma japonicum. Put plainly: Antischistosomal activity against adult Schistosoma japonicum assessed as worm survival at 15 uM after 48 hrs relative to control.
The test system of test [38] is Schistosoma japonicum. The test is described as follows: Antischistosomal activity against adult Schistosoma japonicum assessed as worm survival at 10 uM after 24 hrs relative to control.
Test [39] relates to Schistosoma japonicum. Put plainly: Antischistosomal activity against juvenile Schistosoma japonicum assessed as worm survival at 10 uM after 48 hrs relative to control.
Test [40] deals with Schistosoma japonicum. The test is described as follows: Antischistosomal activity against juvenile Schistosoma japonicum assessed as worm survival at 20 uM after 24 hrs relative to control.
Test [41] concerns Schistosoma japonicum. The test is described as follows: Antischistosomal activity against juvenile Schistosoma japonicum assessed as worm survival at 50 uM after 72 hrs relative to control.
Test [42] relates to Schistosoma japonicum. The test is described as follows: Antischistosomal activity against juvenile Schistosoma japonicum assessed as worm survival at 100 uM after 48 hrs relative to control.
The subject of test [43] is Schistosoma japonicum. The test is described as follows: Antischistosomal activity against adult Schistosoma japonicum assessed as worm survival at 100 uM after 72 hrs relative to control.
Test [44] deals with Schistosoma japonicum. Put plainly: Antischistosomal activity against juvenile Schistosoma japonicum assessed as worm survival at 100 uM after 24 hrs relative to control.
Test [45] relates to Schistosoma japonicum. The test is described as follows: Antischistosomal activity against adult Schistosoma japonicum assessed as worm survival at 100 uM after 24 hrs relative to control.
Test [46] relates to Schistosoma japonicum. Put plainly: Antischistosomal activity against juvenile Schistosoma japonicum assessed as worm survival at 100 uM after 72 hrs relative to control.
Test [47] concerns Schistosoma japonicum. The test is described as follows: Antischistosomal activity against adult Schistosoma japonicum assessed as worm survival at 100 uM after 48 hrs relative to control.

For `O=C(Oc1ccc2c(c1)C1CN(C(=O)C3CCCCC3)CC(=O)N1CC2)C1CCC2(CC1)OOC1(O2)C2CC3CC(C2)CC1C3` (stereo not drawn), the survival at 80 µM in test [1], in [2] and in [8] was 0% each time. Also, the survival at 70 µM came to 20% in test [3], 40% in test [6] and 20% in [7]. The survival at 50 µM in [4], in test [5] and in test [11] was 40% each time. In addition, the survival at 60 µM in [9], in test [10] and in test [12] was 40% each time.

Turning to `C[C@H]1[C@@H](OC(=O)CCC(=O)Nc2ccc3c(c2)C2CN(C(=O)C4CCCCC4)CC(=O)N2CC3)O[C@@H]2O[C@@]3(C)CC[C@H]4[C@H](C)CC[C@@H]1[C@@]24OO3` (stereo partly drawn), the survival at 20 µM in test [13] came out at 0%; in test [17], 0%; in test [18] it was 0%; in [34], 0%; in test [35], 0%; in test [40], 11.1%. Also, the Activity in test [14] is 3.8%; in test [33] it was 41.8%. The survival at 10 µM in test [15] was determined as 100%; in test [21], 100%; in test [27], 9.1%; in test [32], 54.5%; in test [38], 100%; in test [39], 45.5%. Besides, the survival at 50 µM in [4], in [20], in [22], in [5], in test [11] and in test [41] was 0% throughout. Further, the survival at 5 µM in [16], in [23] and in test [25] was 9.1% each time. The survival at 25 µM in test [19], in [26], in [29], in test [30], in [31] and in test [36] was 0% throughout. Further, the survival at 15 µM was determined as 0% in test [24], 40% in [28] and 60% in [37].

On to `O=C(C1CCCCC1)N1CC(=O)N2CCc3ccccc3C2C1` (stereo not drawn) [PRAZIQUANTEL], for which the survival at 80 µM is 10% in test [1], 19.1% in [2] and 28.8% in [8]. For the same molecule, the Activity was 19.8% in [14] and 66.7% in [33]. In addition, the survival at 100 µM came to 100% in [42]; 1.4% in test [43]; 100% in [44]; 10% in test [45]; 100% in test [46]; 4.4% in test [47]. Moreover, the survival at 50 µM in test [4] amounted to 36.3%; in test [5], 44.4%; in test [11], 62.9%.
